Source: patent US8895004B2 (priority 2007, dated 2014)
Read-outs that look alike come from different tables or passages of the source.

What was measured:
[1] = test system: cells predominantly expressing presynaptic N-type calcium channels; format: cell-based, rat
[2] = test system: GABAA receptors; format: cell-based, rat
[3] = test system: cultured hippocampal neurons; assay: sPSC frequency at 1 mM and 4 mM extracellular Ca2+ after Aβ(1-42) globulomer; format: cell-based
Experimental: Spontaneous synaptic activity was measured in cultured hippocampal neurons using whole-cell voltage clamp techniques (Vhold=−70 mV). Under the ionic conditions used (ECl˜−10 mV) all synaptic events appeared as inward currents.
Currents recorded prior to the addition of the globulomer served as control describing basal synaptic transmission. Currents recorded in the interval immediately after application were analysed with respect to the control data. Afterwards, extracellular Ca^2+ was elevated from 1 mM to 4 mM (leaving the concentration of globulomer unchanged). Currents in the following 5 min recording interval were again analysed with respect to control data.

[4] = molecular target: T1, P/Q-type calcium channels (Rattus norvegicus, UniProt P54282); format: cell-based
T1 construct: Typical P/Q channel-mediated currents could be reliably elicited in somatic whole-cell recordings under our culture conditions; endogenous in cells; host or cells: cultured hippocampal neurons

[5] = test system: cultured hippocampal neurons
[6] = test system: hippocampal slice; assay: Spontaneous synaptic currents in acute hippocampal slice, CA1 pyramidal cells; format: cell-based; conditions: mouse slice
Experimental: 400 μm thick slices were prepared from freshly dissected hippocampi of the mouse using a method known per se (Dingledine R. Brain Slices. New York: Plenum Press, 1983).

[7] = test system: cultured hippocampal neurons; format: cell-based, rat
[8] = test system: hippocampal slice cultures; assay: Evoked synaptic transmission in hippocampal slice cultures after overnight incubation; conditions: globulomer approx. 1 μM monomer
[9] = test system: L-type calcium currents; format: cell-based, rat
[10] = globulomer, after elevation of Ca2+ to 4 mM

T1 sequence (Q8CFG6 19-1157): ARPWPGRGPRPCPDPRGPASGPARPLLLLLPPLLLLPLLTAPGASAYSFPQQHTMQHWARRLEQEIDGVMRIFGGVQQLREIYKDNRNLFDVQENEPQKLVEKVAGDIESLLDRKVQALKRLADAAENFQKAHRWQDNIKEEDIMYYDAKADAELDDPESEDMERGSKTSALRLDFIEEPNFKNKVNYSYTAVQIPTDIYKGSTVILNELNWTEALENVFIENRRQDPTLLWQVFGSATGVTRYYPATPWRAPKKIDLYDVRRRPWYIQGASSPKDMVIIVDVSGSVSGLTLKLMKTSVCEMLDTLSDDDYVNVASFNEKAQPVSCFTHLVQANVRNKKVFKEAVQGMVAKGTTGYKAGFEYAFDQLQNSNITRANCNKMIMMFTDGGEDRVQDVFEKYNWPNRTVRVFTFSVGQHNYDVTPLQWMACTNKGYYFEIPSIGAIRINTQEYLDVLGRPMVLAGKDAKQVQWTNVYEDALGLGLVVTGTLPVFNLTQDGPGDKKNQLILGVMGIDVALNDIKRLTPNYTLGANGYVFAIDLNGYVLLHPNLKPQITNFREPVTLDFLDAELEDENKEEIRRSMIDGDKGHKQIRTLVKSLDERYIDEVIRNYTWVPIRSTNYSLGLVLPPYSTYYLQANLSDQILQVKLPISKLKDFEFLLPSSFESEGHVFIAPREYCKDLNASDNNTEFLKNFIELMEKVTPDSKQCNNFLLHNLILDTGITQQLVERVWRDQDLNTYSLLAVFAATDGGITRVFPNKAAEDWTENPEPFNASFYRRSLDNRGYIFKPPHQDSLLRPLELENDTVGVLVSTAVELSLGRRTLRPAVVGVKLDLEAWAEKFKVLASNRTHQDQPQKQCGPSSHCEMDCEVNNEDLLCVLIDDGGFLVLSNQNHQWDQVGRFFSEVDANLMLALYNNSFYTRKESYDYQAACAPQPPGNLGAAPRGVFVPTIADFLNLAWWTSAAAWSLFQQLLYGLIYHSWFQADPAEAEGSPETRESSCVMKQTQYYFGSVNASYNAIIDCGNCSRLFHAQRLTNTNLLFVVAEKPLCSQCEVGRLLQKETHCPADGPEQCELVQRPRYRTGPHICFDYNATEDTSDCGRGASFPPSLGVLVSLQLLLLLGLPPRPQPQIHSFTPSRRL
T1 sequence (P54282 whole entry): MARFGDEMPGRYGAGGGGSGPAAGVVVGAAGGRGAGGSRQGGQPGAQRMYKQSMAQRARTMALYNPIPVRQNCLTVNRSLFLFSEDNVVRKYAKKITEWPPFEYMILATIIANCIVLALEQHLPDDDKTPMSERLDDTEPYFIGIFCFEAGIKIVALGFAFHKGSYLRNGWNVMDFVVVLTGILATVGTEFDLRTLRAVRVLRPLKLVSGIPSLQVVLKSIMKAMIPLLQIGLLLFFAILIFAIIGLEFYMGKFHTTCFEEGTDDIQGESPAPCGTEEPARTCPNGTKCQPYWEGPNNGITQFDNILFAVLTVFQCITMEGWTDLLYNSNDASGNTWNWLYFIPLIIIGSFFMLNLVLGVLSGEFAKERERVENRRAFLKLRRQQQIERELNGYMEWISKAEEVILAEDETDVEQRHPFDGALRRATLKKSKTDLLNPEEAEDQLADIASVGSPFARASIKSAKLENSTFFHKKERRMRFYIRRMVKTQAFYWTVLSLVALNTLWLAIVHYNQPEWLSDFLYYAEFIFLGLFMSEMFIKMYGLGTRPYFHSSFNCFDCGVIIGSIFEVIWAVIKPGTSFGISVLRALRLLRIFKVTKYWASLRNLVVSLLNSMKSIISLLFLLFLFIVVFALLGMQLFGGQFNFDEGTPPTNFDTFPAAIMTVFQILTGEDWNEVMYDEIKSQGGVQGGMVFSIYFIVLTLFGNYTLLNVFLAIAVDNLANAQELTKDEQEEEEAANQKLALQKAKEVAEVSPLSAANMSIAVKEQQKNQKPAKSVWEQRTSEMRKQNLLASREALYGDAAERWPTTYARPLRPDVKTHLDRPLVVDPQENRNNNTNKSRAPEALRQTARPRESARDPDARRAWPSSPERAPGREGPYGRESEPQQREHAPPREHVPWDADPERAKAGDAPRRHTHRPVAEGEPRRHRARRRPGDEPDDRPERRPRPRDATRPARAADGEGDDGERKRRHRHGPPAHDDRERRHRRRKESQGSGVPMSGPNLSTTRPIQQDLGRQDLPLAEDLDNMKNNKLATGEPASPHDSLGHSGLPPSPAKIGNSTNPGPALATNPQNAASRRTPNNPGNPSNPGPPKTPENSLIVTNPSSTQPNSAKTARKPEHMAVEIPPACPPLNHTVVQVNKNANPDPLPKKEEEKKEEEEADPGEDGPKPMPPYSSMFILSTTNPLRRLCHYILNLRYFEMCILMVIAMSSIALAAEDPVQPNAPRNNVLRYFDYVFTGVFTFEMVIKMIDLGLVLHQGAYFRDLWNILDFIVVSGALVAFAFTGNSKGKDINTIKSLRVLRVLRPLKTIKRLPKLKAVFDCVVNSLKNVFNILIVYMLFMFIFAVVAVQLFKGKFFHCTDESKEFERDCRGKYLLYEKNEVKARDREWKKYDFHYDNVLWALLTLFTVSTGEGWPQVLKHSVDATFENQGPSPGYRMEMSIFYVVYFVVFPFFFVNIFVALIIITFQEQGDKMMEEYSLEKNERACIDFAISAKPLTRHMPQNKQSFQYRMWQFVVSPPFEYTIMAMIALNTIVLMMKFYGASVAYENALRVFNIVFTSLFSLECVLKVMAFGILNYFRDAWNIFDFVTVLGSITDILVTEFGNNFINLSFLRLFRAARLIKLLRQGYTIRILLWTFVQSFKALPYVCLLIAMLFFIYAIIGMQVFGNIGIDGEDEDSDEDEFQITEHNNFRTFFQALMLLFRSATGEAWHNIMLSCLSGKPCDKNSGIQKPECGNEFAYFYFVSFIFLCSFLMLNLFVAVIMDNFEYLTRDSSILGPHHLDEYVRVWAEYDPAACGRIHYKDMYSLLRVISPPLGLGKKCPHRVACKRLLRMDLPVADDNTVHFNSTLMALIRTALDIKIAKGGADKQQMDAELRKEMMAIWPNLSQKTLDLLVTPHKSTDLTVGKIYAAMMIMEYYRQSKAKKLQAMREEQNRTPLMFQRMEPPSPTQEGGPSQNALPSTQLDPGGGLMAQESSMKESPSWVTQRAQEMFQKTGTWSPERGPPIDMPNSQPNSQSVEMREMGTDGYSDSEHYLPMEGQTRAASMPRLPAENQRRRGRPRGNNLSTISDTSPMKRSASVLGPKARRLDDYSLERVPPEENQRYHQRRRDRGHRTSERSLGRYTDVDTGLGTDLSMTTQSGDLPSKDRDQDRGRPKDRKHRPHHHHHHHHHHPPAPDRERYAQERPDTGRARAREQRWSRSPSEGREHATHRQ
T1 sequence (P54283 whole entry, further chain): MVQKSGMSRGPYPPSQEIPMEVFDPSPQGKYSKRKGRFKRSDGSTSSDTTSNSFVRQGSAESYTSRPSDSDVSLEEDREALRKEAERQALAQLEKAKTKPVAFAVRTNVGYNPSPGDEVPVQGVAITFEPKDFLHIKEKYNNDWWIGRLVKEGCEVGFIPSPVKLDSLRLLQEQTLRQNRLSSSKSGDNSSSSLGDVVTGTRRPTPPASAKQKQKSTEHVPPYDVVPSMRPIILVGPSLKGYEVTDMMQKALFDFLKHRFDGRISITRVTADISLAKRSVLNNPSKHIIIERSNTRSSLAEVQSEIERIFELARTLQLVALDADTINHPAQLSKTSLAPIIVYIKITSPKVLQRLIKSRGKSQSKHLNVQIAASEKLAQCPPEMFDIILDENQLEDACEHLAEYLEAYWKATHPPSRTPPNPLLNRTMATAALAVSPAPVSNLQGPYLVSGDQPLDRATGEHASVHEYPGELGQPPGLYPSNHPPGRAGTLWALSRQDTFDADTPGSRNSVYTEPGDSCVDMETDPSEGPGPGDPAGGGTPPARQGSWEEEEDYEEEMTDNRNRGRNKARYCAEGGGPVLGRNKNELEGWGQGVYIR

Substance: Aβ(1-42) globulomer: soluble, globular, non-covalent association of Aβ(1-42) peptides, apparent molecular weight 38/48 kDa, obtained as in Example 6b of WO2004/067561
- spontaneous synaptic activity (frequency and amplitude) in N-dominated cells [1]: does not impair spontaneous synaptic activity
- GABA-induced inward currents [2]: unaltered
- median amplitude of sPSCs ([3]; 1 mM Ca2+, globulomer): 97±5%
- sPSC frequency ([3]; 1 mM Ca2+, globulomer approx. 1 μM monomer): 63±7 % of control
- median amplitude of sPSCs [3, 10]: 98±6%
- sPSC frequency [3, 10]: 77±13 % of control
- amplitude of P/Q-type currents [4]: 62±7 % of control
- maximal conductance (gmax) [4]: 27.2±3.2 nS
- reversibility of P/Q-type current reduction [4]: partially reversible
- slope Vc of steady-state activation [4]: −10.8±0.5 mV
- slope Vc of steady-state inactivation [4]: −12.6±1.1 mV
- steady-state activation Vh [4]: −17.3±1.3 mV
- voltage at half-maximal inactivation [4]: 32.4±1.2 mV
- amplitude of mEPSCs [5]: 96±3 % of control
- amplitude of spontaneous EPSCs [5]: 79±4 % of control
- amplitude of spontaneous EPSCs during washout [5]: 96±6%
- amplitude of spontaneous IPSCs after withdrawal [5]: 94±2%
- amplitude of synaptic currents after pre-incubation with ω-Agatoxin IVA [5]: 102±7
- frequency of mIPSCs [5]: 52±10 % of control
- frequency of mIPSCs after washout [5]: 68±12 % of control
- frequency of mPSCs [5]: 56±9 % of control
- frequency of mPSCs after washout [5]: 77±7.6 % of control
- frequency of miniature EPSCs [5]: 57±9 % of control
- frequency of miniature EPSCs after wash-out [5]: 54±8%
- frequency of sPSCs after washout [5]: 61±16%
- frequency of spontaneous EPSCs [5]: 14±4 % of control
- frequency of spontaneous EPSCs during washout [5]: 52±19 % of control
- frequency of spontaneously occurring IPSCs [5]: 64±5 % of control
- frequency of synaptic currents after pre-incubation with ω-Agatoxin IVA [5]: 108±15%
- mIPSC amplitude [5]: 81±6 % of control
- mIPSC amplitude after washout [5]: 85±6%
- median amplitude of mPSCs [5]: 30.2±5.2 pA
- median amplitude of spontaneous IPSCs [5]: 82±2 % of control
- inhibition mechanism in hippocampal slice [6]: also valid in situ
- amplitude of the AP (baseline to peak) [7]: 110.9±16.7 mV
- half-width time [7]: 4.0 ± 2.9 ms
- input resistance [7]: 131.6±13.7 MΩ
- maximal rate of repolarization [7]: 47.4±19.3 V/s
- maximal rate of rise [7]: 84.2±50.0 V/s
- threshold for firing [7]: −24.2±9.8 mV
- evoked synaptic transmission [8]: strongly suppresses synaptic transmission
- L-type calcium current amplitude [9]: 573.0±225.6 pA

Substance: monomeric Aβ(1-42): synthetic monomeric Aβ(1-42) peptide (H-1368; Bachem) dissolved in 0.1% NaOH; likely a mixture of aggregation states
- frequency of mPSCs ([5]; 1 μM monomer, TTX): 87±3 % of control
- median amplitude of mPSCs ([5]; 1 μM monomer, TTX): 33.7±3.0 pA

Substance: ω-agatoxin IVA (KKKCIAKDYGRCKWGGTPCCRGRGCICSIMGTNCECKPRLIMEGLGLA)
- spontaneous synaptic activity (frequency and amplitude) in N-dominated cells [1]: does not impair spontaneous synaptic activity
